This note sets out measurements from patent publication US20080182277A1, “Assays and methods using biomarkers” (Genentech, Inc., priority 2005, published 2008).

What all share (type): cell-based, human
Test [1] has as its system PSN-1 pancreatic carcinoma cells. Briefly: siRNA knockdown followed by cell viability assay, PSN-1. Conditions: siRNA 25 nM 48 h, then Apo2L/TRAIL 24 h. As to the method: (§1) FIG. 11 illustrates modulation of particular O-glycosylation enzymes alters sensitivity to Apo2L/TRAIL. (A) Colo205 cells were preincubated with the pan O-glycosylation enzyme inhibitor benzyl-GalNAc (bGalNAc), treated with Apo2L/TRAIL for 24 h, and cell viability was determined (DMSO=vehicle control). (B) PSN-1 (pancreatic carcinoma) and Hs294T (melanoma) cells were transfected with caspase-8 or ppGalNAcT-14 siRNAs for 48 h, incubated with Apo2L/TRAIL for another 24 h and cell viability was determined. siRNA duplexes against a non-targeting sequence (Dharmacon) were used as a control (NTC). (C) DLD-1 colorectal carcinoma cells were transfected with ppGalNAcT-3 or Fut-6 by siRNAs and tested as in B. (D) HEK293 cells were co-transfected with plasmids encoding the indicated genes in combination with ppGalNAcT-14 or vector control. Apoptosis was measured at 24 h by Annexin V staining (left panel). H1569 melanoma cells were transduced with retrovirus directing ppGalNAcT-14 expression or control retrovirus; resulting cell line pools were treated with Apo2L/TRAIL for 24 h and cell viability was determined (right panel). Western blot analysis using anti-FLAG antibodies was used to verify expression of epitope-tagged ppGalNAcT-14.
(§2) FIG. 14 illustrates (A) Reduction in mRNA expression of ppGalNAcT-14 or ppGalNAcT-3 in PSN-1 or DLD-1 cells after 48 h siRNA knockdown by Taqman analysis. […]

In a further test the test system is PSN-1 cells. Briefly: Immunoblot analysis of the Apo2L/TRAIL-induced caspase cascade, PSN-1. As to conditions: siRNA 48 h, Apo2L/TRAIL 4 or 8 h. As to the method:
(§3) FIG. 12 illustrates (A) Analysis of the caspase cascade induced by Apo2L/TRAIL. PSN-1 and DLD-1 cells were transfected with siRNAs against ppGalNAcT-14 or Fut-6, respectively, for 48 h. The cells were treated with Apo2L/TRAIL for 4 or 8 h, and cell lysates were analyzed by immunoblot with antibodies specific for caspase-8, Bid, caspase-9, caspase-3, or actin as a loading control. (B) PSN-1 cells were transfected with ppGalNAcT-14 siRNA as in A, treated with Apo2L/TRAIL for 4 h, and caspase-3/7 enzymatic activity in cell lysates was determined. (C) Analysis of the Apo2L/TRAIL DISC. PSN-1 cells were transfected with ppGalNAcT-14 siRNA as in A. FLAG-Apo2L/TRAIL ([…]) was added for 0-60 min, the cells were lysed, and subjected to an immunoprecipitation with an anti-FLAG antibody. DISC-associated FADD, caspase-8, DR4, and were detected by immunoblot. (D) PSN-1 cells were transfected, treated, and subjected to DISC immunoprecipitation as in C, and DISC-associated caspase-8 enzymatic activity was measured as previously described (Sharp et al., J. Biol. Chem., 280:19401 (2005).
(§4) siRNAs were purchased as double stranded RNA oligonucleotides and transfected into the respective cell lines at a final concentration of 25 nM for each siRNA. siRNA duplexes against a non-targeting sequence (Dharmacon) was used as a control. […]

For the next test, the system named is DLD-1 cells. Briefly: Immunoblot analysis of the Apo2L/TRAIL-induced caspase cascade, DLD-1. As to conditions: siRNA 48 h, Apo2L/TRAIL 4 or 8 h. On the procedure:
as §3, §4

In another test the test system is Hs294T melanoma cells. The test is described as follows: siRNA knockdown followed by cell viability assay, Hs294T. Conditions: siRNA 25 nM 48 h, then Apo2L/TRAIL 24 h. On the procedure: as §1, §2
The next test deals with Colo205 cells. The test is described as follows: Inhibition of O-glycosylation with benzyl-GalNAc, then Apo2L/TRAIL viability assay. As to conditions: preincubation with Benzyl-a-GalNAc 2 mM or 4 mM, then Apo2L/TRAIL 24 h. On the procedure: as §1
Colo205 cells were grown in the presence of Benzyl-a-GalNAc (2 mM or 4 mM) for 72 hours. […]

With “5′ GGACAAAGTTTACCAAATG-dTdT 3′ [caspase-8 siRNA, reference compound]”, the “effect on sensitivity to Apo2L/TRAIL (cell viability)” value (in test [1]; with Hs294T melanoma cells) was “essentially complete protection” throughout. The “Apo2L/TRAIL-induced caspase processing (caspase-8, Bid, caspase-9, caspase-3)” value in the test on PSN-1 cells and with DLD-1 cells was “prevented these events” each time.

`CC(=O)N[C@H]1[C@@H](OCc2ccccc2)O[C@H](CO)[C@H](O)[C@@H]1O` [benzyl-GalNAc, Benzyl-a-GalNAc]: the “effect on sensitivity to Apo2L/TRAIL (cell viability)” value with Colo205 cells was “markedly reduced sensitivity to Apo2L/TRAIL”.
